Experimental data reported in patent US9849489B2, “Passive sampling devices” (priority 2015, dated 2017).
Where a name gives a salt, the structure may show the parent alone.

Legend:
[1] = stability of 17 infused compounds in stored wristbands; assay type: physicochemical; conditions: for Overall RSD from entire study to 28 days: RSD across all time and temperature samples (−20° C., 4° C., 30° C.); for Beginning RSD from starting time point: RSD of concentration (ng/mL), extraction immediately following infusion
Protocol: In another example, the stability of wristbands infused with 17 compounds of varied physiochemistry was studied for various combinations of times and temperatures. […] Twelve wristbands underwent solvent extraction and analysis immediately following infusion. The remaining wristbands were divided into three groups and one group of wristbands was stored at each of −20° C., 4° C., and 30° C. Four wristbands from each temperature group underwent solvent extraction and analysis after 7 days and after 28 days. Four wristbands from the −20° C. and 4° C. temperature groups underwent solvent extraction and analysis after 14 days. This stability study is ongoing and will span 2 years.

[2] = stability of PAH-infused wristbands stored in PTFE bags at three temperatures; assay type: physicochemical; conditions: −20° C., 23° C. or 35° C., 72 hours
Protocol: Studies were carried out to examine whether PAHs would degrade after being sequestered by a wristband or whether field or handling conditions would influence exposure concentrations determined during wristband analysis.
The PAH-infused wristbands placed in PTFE storage bags were exposed to a temperature of −20° C. (in a walk-in freezer), 23° C. (ambient temperature), or 35° C. (in a drying oven) for 72 hours. Temperatures in each environment were monitored every 30 minutes using a temperature logger. Following the 72-hour exposure, the PAHs were extracted from the wristbands using solvent extraction and analyzed as described above.
In FIG. 14, the ratio of each analyte response divided by an internal standard response (for perylene-d12) are shown, because an error with surrogate recovery artificially inflated the variance across the three temperature exposures. […] The largest change among all PAH analytes was still less than 13% (fluorene-d10, freezer and ambient temperatures), so any changes in PAH concentrations were deemed negligible. Furthermore, potential changes in concentration would have been conserved since transportation was similar among wristbands within each temperature group. […] The standard deviations in FIG. 14 are the result of three replicates.

Structure (SMILES) | Overall RSD from entire study to 28 days [1] | Beginning RSD from starting time point [1] | largest change in analyte response ratio between temperature groups [2]
[2H]c1c([2H])c([2H])c(-c2c(Cl)c(Cl)cc(Cl)c2Cl)c([2H])c1[2H] [PCB-65-d5, reference compound] | 37% | 35% | –
Brc1cc(Br)c(Oc2cc(Br)c(Br)cc2Br)c(Br)c1 [PBDE 154] | 51% | 53% | –
[2H]c1c([2H])c([2H])c2c(c1[2H])-c1c([2H])c([2H])c([2H])c([2H])c1C2([2H])[2H] [fluorene-d10, reference compound] | 16% | 14% | less than 13%
O=P(Oc1ccccc1)(Oc1ccccc1)Oc1ccccc1 [triphenyl phosphate] | 12% | 6% | –
Brc1ccc(Oc2ccc(Br)cc2Br)c(Br)c1 [PBDE 47] | 37% | 37% | –
CCCSP(=O)(OCC)SCCC [prophos/ethoprophos] | 11% | 8% | –
O=S1(=O)OCC2C(CO1)C1(Cl)C(Cl)=C(Cl)C2(Cl)C1(Cl)Cl (stereo not drawn) [endosulfan sulfate] | 10% | 8% | –
[2H]c1c([2H])c2c([2H])c([2H])c3c([2H])c([2H])c([2H])c4c([2H])c([2H])c(c1[2H])c2c34 [pyrene-d10, reference compound] | 32% | 27% | –
O=C1C2CC3C1C1(Cl)C(Cl)C4(Cl)C2C3C1(Cl)C4(Cl)Cl (stereo not drawn) [endrin Ketone] | 8% | 4% | –
[2H]c1c([2H])c([2H])c2c(c1[2H])C(=O)c1c([2H])c([2H])c([2H])c([2H])c1C2=O [Anthraquinone-d8, reference compound] | 14% | 8% | –
O=P(OC(CCl)CCl)(OC(CCl)CCl)OC(CCl)CCl [TCDPP, 1,3-dichloro-2-propyl phosphate] | 14% | 10% | –
Brc1ccc(Oc2cc(Br)c(Br)cc2Br)c(Br)c1 [PBDE 99] | 43% | 46% | –
[2H]c1c([2H])c([2H])c(-c2c(Cl)c(Cl)c(Cl)c(Cl)c2Cl)c([2H])c1[2H] [PCB-116-d5, reference compound] | 44% | 45% | –
[2H]c1c([2H])c(Oc2ccc(Cl)cc2O)c(Cl)c([2H])c1Cl [triclosan-d3, reference compound] | 11% | 9% | –
CCOP(=S)(OCC)Oc1nc(Cl)c(Cl)cc1Cl [chlorpyrifos] | 24% | 19% | –
[2H]c1c([2H])c(-c2cc(Cl)c(Cl)c(Cl)c2Cl)c([2H])c(Cl)c1Cl [PCB-156-d3, reference compound] | 50% | 53% | –
